Tests used:
Type in all cases: cell-based
cereblon (CRBN) [1] = molecular target: T1, cereblon (CRBN) (Homo sapiens, UniProt Q96SW2); assay: CRBN degradation in MM1.s cells, 4-h dose titration, immunoblot; conditions: 4-h dose titration treatment
T1 construct: endogenous in cells; host or cells: MM1.s cells (also HEK293T, MOLT4, SK-N-DZ and Kelly cells for compound 1)
Experimental: (§1) MM1.S cells were generously provided by James Bradner (Dana-Farber Cancer Institute (DFCI), Boston, MA). MM1.S cells were cultured in Roswell Park Memorial Institute (RPMI)-1640 media containing L-glutamine, supplemented with 10% fetal bovine serum (FBS) and 1% penicillin/streptomycin. Mycoplasma testing was performed on a monthly basis and all lines were negative.
(§2) Cells were washed with ice cold phosphate-buffered saline (PBS) before being lysed with Cell Lysis Buffer (Cell Signaling Technology®) supplemented with protease and phosphatase inhibitor cocktails (Roche®) at 4° C. for 15 minutes. The cell lysate was vortexed before being centrifuged at 14,000×g for 20 min at 4° C. Protein in cell lysate was quantified by bicinchoninic acid (BCA) assay (Pierce™). Primary antibodies used in this study include CDK9 (Cell Signaling Technology®, 2316S), CKlα (Abcam®, ab206652), CRBN (Novus Biologicals®, NBP1-91810), eRF3/GSPT1 (Abcam®, ab49878), IKZF1 (Ikaros) (Cell Signaling Technology®, 5443S), IKZF3 (Aiolos) (Cell Signaling Technology®, 15103S), VHL (Cell Signaling Technology®, 68547S), and vinculin (Abcam®, ab130007). Blot quantification was performed using Image Studio 4.0 software, normalizing to loading controls.

cereblon (CRBN) [2] = molecular target: T1, cereblon (CRBN); assay: CRBN degradation in MM1.s cells, time course experiment, immunoblot; conditions: 50-nM dose
Experimental: as §1, §2
The experimental protocol is set forth above in Example 7.

cereblon (CRBN) [3] = molecular target: T1, cereblon (CRBN); assay: Proteomic analysis (TMT LC-MS3) of protein abundance in cells; conditions: MM1.s cells, 50 nM, 6 hours
Experimental: MM1.s cells were treated with DMSO or 50 nM of bispecific compound 1 or 6 in biological triplicates for 6 hours and cells harvested by centrifugation. Lysis buffer (8 M Urea, 50 mM NaCl, 50 mM 4-(2hydroxyethyl)-1-piperazineethanesulfonic acid (EPPS) pH 8.5, Protease and Phosphatase inhibitors from Roche®) was added to the cell pellets and homogenized by 20 passes through a 21 gauge (1.25 in. long) needle to achieve a cell lysate with a protein concentration between 1-4 mg mL-1. A micro-BCA assay (Pierce™) was used to determine the final protein concentration in the cell lysate. 200 μg of protein for each sample were reduced and alkylated as described in Donovan et al., Elife 7:e38430 (2018).
Proteins were precipitated using methanol/chloroform. In brief, four volumes of methanol were added to the cell lysate, followed by one volume of chloroform, and finally three volumes of water. […]
Anhydrous ACN was added to each peptide sample to a final concentration of 30% v/v, and labeling was induced with the addition of TMT reagent to each sample at a ratio of 1:4 peptide:TMT label. […] The sample channels were combined at a 1:1:1:1:1:1:1:1:1:1 ratio, desalted using C18 solid phase extraction cartridges (Waters®) and analyzed by LC-MS for channel ratio comparison. Samples were then combined using the adjusted volumes determined in the channel ratio analysis and dried down in a speed vacuum. […]

T1 sequence (Q96SW2 whole entry): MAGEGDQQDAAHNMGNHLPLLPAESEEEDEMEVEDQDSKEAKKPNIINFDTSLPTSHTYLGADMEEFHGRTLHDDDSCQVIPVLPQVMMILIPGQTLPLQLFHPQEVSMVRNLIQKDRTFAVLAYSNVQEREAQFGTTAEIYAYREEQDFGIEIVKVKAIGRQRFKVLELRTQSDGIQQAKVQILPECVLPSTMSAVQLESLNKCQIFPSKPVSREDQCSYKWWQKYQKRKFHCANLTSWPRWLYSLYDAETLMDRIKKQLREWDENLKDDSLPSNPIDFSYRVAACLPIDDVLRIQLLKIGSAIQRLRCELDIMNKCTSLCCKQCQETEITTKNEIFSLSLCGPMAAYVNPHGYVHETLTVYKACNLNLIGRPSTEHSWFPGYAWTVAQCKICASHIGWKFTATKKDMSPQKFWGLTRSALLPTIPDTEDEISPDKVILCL

concentration at which virtually complete degradation of CRBN is seen (cereblon (CRBN) [1])	earliest time at which CRBN degradation is seen after treatment (cereblon (CRBN) [2]) [h]	proteins significantly degraded by proteomic analysis (selectivity) (cereblon (CRBN) [3])	Structure (SMILES)	CRBN degrader potency and selectivity (in words) (cereblon (CRBN) [1])
around 50 nM	1	only CRBN was significantly degraded	Cc1ncsc1-c1ccc([C@H](C)NC(=O)[C@@H]2C[C@@H](O)CN2C(=O)[C@@H](NC(=O)CCCCCCCCCCOc2cccc3c2C(=O)N(C2CCC(=O)NC2=O)C3=O)C(C)(C)C)cc1 (stereo partly drawn) [Compound 6, (2S,4R)-1-((2S)-2-(11-((2-(2,6-Dioxopiperidin-3-Yl)-1,3-Dioxoisoindolin-4-Yl)Oxy)Undecanamido)-3,3-Dimethylbutanoyl)-4-Hydroxy-N-((S)-1-(4-(4-Methylthiazol-5-Yl)Phenyl)Ethyl)Pyrrolidine-2-Carboxamide]	highly potent and selective degraders of CRBN
around 50 nM	1	only CRBN was significantly degraded	Cc1ncsc1-c1ccc(CNC(=O)[C@@H]2C[C@@H](O)CN2C(=O)[C@@H](NC(=O)CCCCCCCCCCOc2cccc3c2C(=O)N(C2CCC(=O)NC2=O)C3=O)C(C)(C)C)cc1 (stereo partly drawn) [Compound 1, (2S,4R)-1-((2S)-2-(11-((2-(2,6-dioxopiperidin-3-yl)-1,3-dioxoisoindolin-4-yl)oxy)undecanamido)-3,3-dimethylbutanoyl)-4-hydroxy-N-(4-(4-methylthiazol-5-yl)benzyl)pyrrolidine-2-carboxamide]	highly potent and selective degraders of CRBN

From patent US20230357222A1, “SELECTIVE SMALL MOLECULE DEGRADERS OF CEREBLON” (DANA-FARBER CANCER INSTITUTE, INC., priority 2020, published 2023)
